This is an account of results in patent US20070219224A1, “Compositions and Methods Relating to Pyrimidine Synthesis Inhibitors” (UAB RESEARCH FOUNDATION, THE, priority 2004, published 2007).

Entries after “also recorded” stand apart in the source; their conditions may differ.

One assay concerns UTP/ATP content of BALF. Nature of the assay: Measurement of nucleotides (UTP/ATP content) in BALF of RSV-infected mice. Type of assay: in vivo, BALB/c mice. The method, then: (§1) Preparation of viral inocula and infection of mice. Preparation of viral stocks and intranasal infection of eight to twelve week-old pathogen-free BALB/c mice of either sex with RSV strain A2 (10^6 PFU in 100 μl) were performed as described in Davis et al., “Nucleotide-mediated inhibition of alveolar fluid clearance in BALB/c mice after respiratory syncytial virus infection,” Am. J. Physiol. Lung Cell Mol. Physiol. 286:L112-L120. (2004). Data for each experimental group was derived from a minimum of 2 independent infections.
Bronchoalveolar lavage. Bronchoalveolar lavage fluid (BALF) was collected as previously described in Davis et al., (2004), using 1 ml of sterile normal saline for cytokine ELISAs, or 0.3 ml of sterile saline for nucleotide assays. Lavagates were centrifuged to remove cells and supernatants stored at −80° C.
Measurement of nucleotides in BALF. Endogenous nucleotidases in BALF were heat denatured (100° C., 3 minutes) and UTP/ATP content measured using the […] and luciferine-luciferase assays, respectively.
(§2) Systemic inhibition of de novo pyrimidine and purine synthesis. Leflunomide (5-methylisoxazole-4-[4-trifluoromethyl]carboxanilide, 35 mg/kg in distilled water containing 1% methylcellulose) was administered once daily by oral gavage in a volume of 300 μl/mouse for 8 days prior to infection, then throughout the infection period. Vehicle controls were gavaged with an equivalent volume of 1% methylcellulose in distilled water. […]

The subject of assay [1] is RSV-infected BALB/c mice. Nature of the assay: Nasal potential difference (NPD, NPDAMIL). Type of assay: in vivo. To be noted: leflunomide throughout the infection period. The method, then: Measurement of nasal potential difference. The potential difference across the nares of anesthetized mice (with the tail as reference) was measured as previously described Grubb et al., (1994) “Hyperabsorption of Na+ and raised Ca(2+)-mediated Cl-secretion in nasal epithelia of CF mice,” Am. J. Physiol 266:C1478-C1483. A baseline NPD was recorded during perfusion of the nasal epithelium with lactated Ringer's solution. The amiloride-sensitive component of NPD (NPDAMIL) was determined by perfusion with lactated Ringer's solution containing 100 μM amiloride. Current pulses of ±60 nA were applied across the epithelium by a 12V battery in series with a 200 MΩ resistor. Changes in NPD in response to the current pulses (proportional to nasal transepithelial resistance, NRte) were recorded (ΔNPD).
Systemic inhibition of de novo pyrimidine and purine synthesis. Leflunomide (5-methylisoxazole-4-[4-trifluoromethyl]carboxanilide, 35 mg/kg in distilled water containing 1% methylcellulose) was administered once daily by oral gavage in a volume of 300 μl/mouse for 8 days prior to infection, then throughout the infection period. Vehicle controls were gavaged with an equivalent volume of 1% methylcellulose in distilled water. Uridine (1 g/kg in 0.9% NaCl) was administered by i.p. injection every 12 hours in a volume of 100 μl (8). […]

The test system of assay [2] is RSV-infected BALB/c mice. Nature of the assay: Lung water content (wet:dry weight ratio) after RSV infection. Type of assay: in vivo. To be noted: day 2, systemic treatment. As to the method:
as §1, §2

Setting [3] is: d2, leflunomide 35 mg/kg oral gavage once daily, uridine 1 g/kg i.p. every 12 hours.

As to `Cc1oncc1C(=O)Nc1ccc(C(F)(F)F)cc1` [Leflunomide, 5-methylisoxazole-4-[4-trifluoromethyl]carboxanilide], the “effect on BALF nucleotide (UTP, ATP) levels (in words)” value in the assay on UTP/ATP content of BALF (d2) is “No increase in BALF nucleotide levels was detected; also recorded: reduced BALF content of both nucleotides to levels below those in untreated, uninfected mice”. Besides, the “ATP, mean nucleotide concentration in BALF ± SE” value in the assay on UTP/ATP content of BALF (setting [3]) was determined as 6 ± 1 nmol/L. In addition, the “UTP, mean nucleotide concentration in BALF ± SE” value in the assay with UTP/ATP content of BALF (setting [3]) turned out to be 5 ± 2 nmol/L. In the assay on RSV-infected BALB/c mice [1], the “basal NPD and NPDAMIL” value is “completely prevented RSV-induced declines in basal NPD and NPDAMIL”. For the same compound, the results for the “lung water content (wet:dry weight ratio) (in words)” value with RSV-infected BALB/c mice [2], with RSV-infected BALB/c mice [2] (listed as LEF) and in the assay with RSV-infected BALB/c mice [2] (listed as leflunomide) were “normalization of lung wet:dry weight ratios”, “reverses RSV-induced increased in lung water content” and “restored normal lung wet:dry weight ratios”, respectively.
